{"source": "patent US11015223B2", "about": "“Methods for determining response to a hypomethylating agent” (THE REGENTS OF THE UNIVERSITY OF CALIFORNIA, priority 2013, dated 2021)", "key": {"MDS patients [1]": {"system": "MDS patients", "assay": "Response to treatment by IWG response criteria revised in 2006 (CR/PR/HI = responders)", "type": "in vivo, human", "text": "A total of 213 MDS patients treated azacitidine or decitabine were included in this study. Samples were obtained from patients treated at the Dana-Farber Cancer Institute (n=42), the MD Anderson Cancer Center (n=104), and as part of the DACO-020 (ADOPT) clinical trial of decitabine (n=67). All samples were collected with patient consent under IRB-approved protocols in accordance with the Declaration of Helsinki. There were no significant differences in baseline patient characteristics by treatment site (Table 1).\nResponse to treatment was assessed using IWG response criteria revised in 2006. Patients with either a complete response (CR), partial response (PR), or hematologic improvement (HI) were considered as ‘responders’ (R, n=100, 47%). whereas patients described as having ‘no response’, ‘stable disease’, ‘progressive disease’, ‘death’ before response assessment, or ‘not evaluable’ were considered ‘non-responders’ (NR, […], 53%).\nCategorical variables were compared using a Fisher exact test, while continuous variables were compared using a Wilcoxon rank-sum test. A Cochran-Mantel-Haenszel (CMH) test was used to test for differences in response rate by mutational status controlling for treatment. Unadjusted and adjusted logistic regression models were used to predict response to therapy. A stepwise algorithm for logistic regression was also utilized to determine a final model; candidate variables considered for inclusion were all mutations, treatment, IPSS classification, age, and sex. The Hosmer and Lemeshow goodness-of-fit test was used to assess model fit for logistic regression models. Overall survival was calculated from the time of treatment to the time of death from any cause or was censored at the date last known alive. Unadjusted and adjusted Cox regression models were constructed for overall survival. A stepwise regression algorithm for Cox regression models was used including the same candidate variables as in the logistic regression modeling. Classification trees were also created using the Rpart package in R version 2.11.1 to classify responders based on mutational status. Cross-validation was used for tree pruning. All p-values reported are two-sided and considered significant at the 0.05 level. No adjustments were made for multiple hypothesis testing."}, "MDS patients [2]": {"system": "MDS patients", "conditions": "cited from earlier work"}, "[3]": {"assay": "Peripheral blood CBC of recipient mice in competitive murine bone marrow transplant", "type": "in vivo", "description": "(§1) Age-matched Tet2^−/−; Mx-Cre^+ and Tet2^+/+; Mx-Cre^+ donor animals (CD45.2) were treated with pIpC (15 μg/g IP) for three non-consecutive days to induce excision of exon 3 of Tet2. Donor bone marrow was harvested two weeks post-pIpC and mixed in a 1:2 ratio with bone marrow harvested from 45.1 WT donors (B6.SJL-Ptprca Pepcb/BoyJ; Jackson), and was then transplanted into 45.1 recipients for a total of 1 million cells/recipient. Peripheral blood engraftment was assessed by FACS at two weeks post-transplant, at which point recipient mice were divided into treatment groups (n=7 per group) and treated with either 5-azacitidine (aza; 2.5 mg/kg IP; Santa Cruz Biotechnology) or vehicle control on the following schedule: two weeks on, two weeks off. Peripheral blood chimerism and CBC were assessed following each round of treatment. Percent 45.2 chimerism was calculated for each time point. Error bars indicate standard error of the mean (SEM) for each group, and p-values for the last time point were calculated using an unpaired two-sample t-test.\nThe observed association between TET2 mutations and response to treatment could be mediated directly by TET2 loss-of-function or by indirect or cell extrinsic effects. To test whether TET2 loss-of-function can sensitize cells to hypomethylating agents, we performed a competitive murine bone marrow transplant experiment using hematopoietic cells from Tet2-null and wildtype littermate donors. […] There was no difference in pretreatment peripheral blood counts between groups. Treatment with AZA (2.5 mg/kg M-F×2 weeks) or vehicle was begun on day 20 post-transplant and repeated starting on day 48."}, "Tet2-null cells": {"system": "Tet2-null cells", "assay": "Competitive murine bone marrow transplant, percent 45.2 chimerism in peripheral blood", "type": "in vivo", "description": "as §1\nThe observed association between TET2 mutations and response to treatment could be mediated directly by TET2 loss-of-function or by indirect or cell extrinsic effects. […]"}, "[4]": {"conditions": "2.5 mg/kg M-F x 2 weeks, regardless of genotype, vs vehicle"}, "[5]": {"conditions": "murine bone marrow transplant experiment"}}, "note": "Where “and” joins values, the source holds several entries; their conditions need not be identical. Equal entries are not always repeated.", "data": [{"molecule": "Nc1ncn([C@@H]2O[C@H](CO)[C@@H](O)[C@H]2O)c(=O)n1", "note": "[azacitidine, 5-azacytidine]", "values": [{"measurement": "Non-Responders (NR/SD/PD/Died/NE) (%)", "setting": "MDS patients [1]; all patients on the treatment", "value": "(52) %"}, {"measurement": "Non-Responders (NR/SD/PD/Died/NE) N", "setting": "MDS patients [1]; all patients on the treatment", "value": 22, "unit": "N"}, {"measurement": "Responders (CR/PR/HI) N", "setting": "MDS patients [1]; all patients on the treatment", "value": 20, "unit": "N"}, {"measurement": "Responders (CR/PR/HI) (%)", "setting": "MDS patients [1]; all patients on the treatment, listed as Azacitidine Alone", "value": "(48) %"}, {"measurement": "Response N", "setting": "MDS patients [1]; patients with ASXL1 mutation", "value": 11, "unit": "N"}, {"measurement": "Response N", "setting": "MDS patients [1]; patients with ATRX mutation, listed as Aza Alone", "value": "0 (0) N and 0 N"}, {"measurement": "Response N", "setting": "MDS patients [1]; patients with BCOR mutation", "value": 2, "unit": "N"}, {"measurement": "Response N", "setting": "MDS patients [1]; patients with CBL mutation", "value": 1, "unit": "N"}, {"measurement": "Response N", "setting": "MDS patients [1]; patients with DNMT3A mutation", "value": 3, "unit": "N"}, {"measurement": "Response N", "setting": "MDS patients [1]; patients with ETV6 mutation", "value": 2, "unit": "N"}, {"measurement": "Response N", "setting": "MDS patients [1]; patients with EZH2 mutation", "value": 3, "unit": "N"}, {"measurement": "Response N", "setting": "MDS patients [1]; patients with IDH1 mutation", "value": 1, "unit": "N"}, {"measurement": "Response N", "setting": "MDS patients [1]; patients with IDH2 mutation", "value": 2, "unit": "N"}, {"measurement": "Response N", "setting": "MDS patients [1]; patients with JAK2 mutation", "value": 2, "unit": "N"}, {"measurement": "Response N", "setting": "MDS patients [1]; patients with KDM3A mutation, listed as Aza Alone", "value": "0 (0) N and 0 N"}, {"measurement": "Response N", "setting": "MDS patients [1]; patients with KDM6B mutation", "value": 1, "unit": "N"}, {"measurement": "Response N", "setting": "MDS patients [1]; patients with KRAS mutation", "value": 1, "unit": "N"}, {"measurement": "Response N", "setting": "MDS patients [1]; patients with MAML1 mutation, listed as Aza Alone", "value": "0 (0) N and 0 N"}, {"measurement": "Response N", "setting": "MDS patients [1]; patients with NF1 mutation", "value": 2, "unit": "N"}, {"measurement": "Response N", "setting": "MDS patients [1]; patients with NOTCH1 mutation", "value": 2, "unit": "N"}, {"measurement": "Response N", "setting": "MDS patients [1]; patients with NOTCH2 mutation", "value": 2, "unit": "N"}, {"measurement": "Response N", "setting": "MDS patients [1]; patients with NPM1 mutation, listed as Aza Alone", "value": "0 (0) N and 0 N"}, {"measurement": "Response N", "setting": "MDS patients [1]; patients with NRAS mutation", "value": 3, "unit": "N"}, {"measurement": "Response N", "setting": "MDS patients [1]; patients with PHF6 mutation", "value": 1, "unit": "N"}, {"measurement": "Response N", "setting": "MDS patients [1]; patients with PRPF8 mutation", "value": 1, "unit": "N"}, {"measurement": "Response N", "setting": "MDS patients [1]; patients with PTPN11 mutation, listed as Aza Alone", "value": "0 (0) N and 0 N"}, {"measurement": "Response N", "setting": "MDS patients [1]; patients with RUNX1 mutation", "value": 3, "unit": "N"}, {"measurement": "Response N", "setting": "MDS patients [1]; patients with SCAF11 mutation", "value": 1, "unit": "N"}, {"measurement": "Response N", "setting": "MDS patients [1]; patients with SF3B1 mutation", "value": 3, "unit": "N"}, {"measurement": "Response N", "setting": "MDS patients [1]; patients with SRSF2 mutation", "value": 3, "unit": "N"}, {"measurement": "Response N", "setting": "MDS patients [1]; patients with TET2 mutation", "value": 6, "unit": "N"}, {"measurement": "Response N", "setting": "MDS patients [1]; patients with TLR1 mutation, listed as Aza Alone", "value": "0 (0) N and 0 N"}, {"measurement": "Response N", "setting": "MDS patients [1]; patients with TP53 mutation", "value": 6, "unit": "N"}, {"measurement": "Response N", "setting": "MDS patients [1]; patients with U2AF1 mutation", "value": 4, "unit": "N"}, {"measurement": "Response N", "setting": "MDS patients [1]; patients with ZRSR2 mutation", "value": 1, "unit": "N"}, {"measurement": "MDS patients with TET2 mutations who responded to treatment", "setting": "MDS patients [2]; TET2 mutations detected by Sanger sequencing", "value": "11 of 13"}, {"measurement": "response rate", "setting": "MDS patients [2]; overall cohort of 86 patients", "value": 52, "unit": "%"}, {"measurement": "WBC levels", "setting": "[3]; [4]", "value": "significant decreases"}, {"measurement": "hematocrit", "setting": "[3]; [4]", "value": "significant decreases"}, {"measurement": "total number of mature granulocytes", "setting": "[3]; [5]", "value": "increasing"}, {"measurement": "level of representation in peripheral blood", "setting": "Tet2-null cells; Tet2-null cells, after two cycles, 2.5 mg/kg IP", "value": "significantly decreased level of representation"}, {"measurement": "clonal advantage associated with loss of Tet2 function", "setting": "Tet2-null cells; [5]", "value": "preferentially decreased"}]}]}
